# Experimental data taken from paper PMC12055039 (Organic & biomolecular chemistry, 2024).
# Like-named read-outs stand apart in the source and are kept apart here.
# Tests used:
# P. falciparum 3D7 = test: Antiparasitic screening against P. falciparum 3D7; format: cell-based; details: read-out: P. falciparum 3D7 EC50; mean ± standard error, 3 biological replicates
# T. brucei [1] = test: Antiparasitic screening against T. brucei; format: cell-based; details: read-out: T. brucei EC50; mean ± standard error, 3 biological replicates
# L. amazonensis [2] = test: Antiparasitic screening against L. amazonensis; format: cell-based; details: read-out: L. amazonensis EC50; mean ± standard error, 3 biological replicates
# L. amazonensis [3] = details: read-out: L. amazonensis EC50; 6/5-spiroindimicins; ref 4b; cited from earlier work
# T. brucei [4] = details: read-out: EC50 (T. brucei); Phase III candidate for trypanosomiasis; cited from earlier work
# [5] = Cytotoxicity against HepG2 cells; details: human
Molecule,EC50 (P. falciparum 3D7),EC50 (T. brucei [1]),EC50 (L. amazonensis [2]),EC50 (L. amazonensis [3]),EC50 (T. brucei [4]),CC50 [5]
"COC(=O)c1[nH]cc2c1[C@]1(CN(C)c3ccc(Cl)cc31)c1[nH]c3ccc(Cl)cc3c1-2 (racemic) [Compound 2, spiroindimicin B]",3 ± 0.2 µM,3 ± 0.23 µM,8 ± 0.49 µM,–,–,–
"COC(=O)c1[nH]cc2c1[C@]1(CNc3ccc(Cl)cc31)c1[nH]c3ccc(Cl)cc3c1-2 (racemic) [Compound 3, spiroindimicin C]",7.1 ± 0.58 µM,13 ± 0.98 µM,> 10 µM,–,–,–
"COC(=O)c1[nH]c(C(=O)OC)c2c1-c1c([nH]c3ccc(Cl)cc13)[C@@]21CN(C)c2ccc(Cl)cc21 (racemic) [Compound 4, spiroindimicin D]",5.6 ± 0.22 µM,3.4 ± 0.21 µM,7.7 ± 0.23 µM,–,–,–
"COC(=O)c1[nH]cc2c1[C@@]1(CN(C)c3ccc(Cl)cc31)c1[nH]c3ccccc3c1-2 (racemic) [Compound 5, spiroindimicin E]",4.8 ± 0.51 µM,4.4 ± 0.32 µM,9.3 ± 1.7 µM,–,–,–
"COC(=O)c1[nH]cc2c1[C@@]1(CN(C)c3ccccc31)c1[nH]c3ccc(Cl)cc3c1-2 (racemic) [Compound 6, spiroindimicin F]",9 ± 0.97 µM,4 ± 0.2 µM,9.9 ± 1.2 µM,–,–,–
"COC(=O)c1[nH]c(C(=O)OC)c2c1-c1c[nH]c3ccc(Cl)c(c13)[C@@]21C=Nc2ccc(Cl)cc21 [Compound 1, spiroindimicin A]",–,–,–,1.3 µM,–,–
CC1(C)OB(O)c2cc(NC(=O)c3ccc(F)cc3C(F)(F)F)ccc21 [acoziborole],–,–,–,–,0.6 µM,–
C[C@H]1CCC/C=C/[C@@H]2C[C@H](O)C[C@H]2[C@H](O)/C=C/C(=O)O1 [brefeldin A],–,–,–,–,–,0.064 ± 0.0045 µM
N-PMB spiroindimicin C [Compound 74],3.7 ± 0.35 µM,1.2 ± 0.03 µM,> 10 µM,–,–,–
spiroindimicin G [Compound 7],7.6 ± 0.47 µM,0.65 ± 0.14 µM,8.1 ± 0.5 µM,–,–,–
